From patent publication US20250115577A1, “BCL-2 Inhibitors” (Eil Therapeutics, Inc., priority 2021, published 2025) come the findings set out here.

Each structure is given as a SMILES string. A value given as a limit tells only on which side of the number the result lay.

The test system of data set [1] is caspase-3 and -7 activities in RS4-11 cells. Nature of the data set: Caspase-3/7 activation (Caspase-Glo 3/7) in RS4-11 cells. It is filed as cell-based. The conditions noted are these: Homo sapiens, 3.5 h, read-out: Cas-3/7 EC50. The procedure:
Example E. Caspase-3/7 Activation
Assay Principle: The Caspase-Glo 3/7 Assay is homogeneous, luminescent assay that measures caspase-3 and -7 activities. The assay provides a luminogenic caspase-3/7 substrate, which contains the tetrapeptide sequence DEVD, in a reagent optimized for caspase activity.
Assay Procedure: Incubate RS4-11 (ATCC, CRL-1873) cells in the 384-well white plate (Corning, #3570) with varying concentrations of test compounds for 3.5 h in a humidified incubator at 37° C. and 5% CO2 […]. Add 15 μL of the Caspase-Glo (Promega, #8212) reagent to each well and to incubate the plate for 30 min at rt. Read on the CLARIOstar Plus (BMG LABTECH) instrument.
(§1) Instrumentation: CLARIOstar Plus (BMG LABTECH); Biomek FX for liquid handling (Beckman Coulter).

In a further data set the target is BCL-2 (Homo sapiens (Human), UniProt P10415). Nature of the data set: BCL-2 TR-FRET Assay (primary PPI inhibition). Format: binding. As to conditions: 60 min incubation, read-out: BCL2 IC50. As to the method: Example A. BCL-2 TR-FRET Assay (BPS Bioscience, #50222)
The following assay concentrations and times were used: 3 ng of BCL-2, 5 μL of 1:100 anti-His Tb-labeled donor, 5 μL of 1:100 Dye-labeled acceptor, 5 µL of 1:40 BCL-2 Peptide Ligand, and 2 μL of 200× test compound, with 60 min incubation time (final concentration of DMSO 0.5%). The results of the assay were read using a plate reader with the following parameters: TR FRET, 340ex/620 and 665em; 60 usec Delay; and 500 usec integration.
as §1

The target of the next data set is BCL-2 [G101V] (Homo sapiens (Human), UniProt P10415, G101V). Put plainly: BCL-2 [G101V] TR-FRET Assay (primary PPI inhibition). Format: binding. As to conditions: 60 min incubation, read-out: BCL2[G101V] IC50. As to the method: Example C. BCL-2 [G101V]TR-FRET Assay
The following assay concentrations and times were used: 0.22 ng/μl of BCL-2 (SinoBiological, #10195-H08E1), 5 μL of 1:100 anti-His Tb-labeled donor, 5 μL of 1:100 Dye-labeled acceptor, 5 μL of 1:40 BCL-2 Peptide Ligand (BPS Bioscience, #50223), and 2 μL of 200× test compound, with 60 min incubation time (final concentration of DMSO 0.5%). The results of the assay were read using a plate reader with the following parameters: TR FRET, 340ex/620 and 665em; 60 usec Delay; and 500 usec integration.
as §1

A further data set deals with BCL-xL (Homo sapiens (Human), UniProt Q07817). Nature of the data set: BCL-xL TR-FRET Assay (primary PPI inhibition). Format: binding. The conditions noted are these: 60 min incubation, read-out: BCLxL IC50. The procedure: Example B. BCL-xL TR-FRET Assay (BPS Bioscience, #50223)
The following assay concentrations and times were used: 10.5 ng of BCL-xL, 5 μL of 1:120 anti-His Tb-labeled donor, 5 μL of 1:120 Dye-labeled acceptor, 5 μL of 1:96 BCL-xL Peptide Ligand, 2 μL of 200× test compound, with 60 min incubation time (final concentration of DMSO 0.5%). The results of the assay were read using a plate reader with the following parameters: TR FRET, 340ex/620 and 665em; 60 usec Delay; and 500 usec integration.
as §1
(In general: Time-resolved FRET reads energy transfer from a long-lived donor to a nearby acceptor.)

In a further data set the test system is MOLT-4 cells. Put plainly: Cell viability assay (CellTiter-Glo), MOLT-4. The conditions noted are these: Homo sapiens, 72 h, 3 days of incubation. It is filed as cell-based. The procedure: (§2) Example D. Cell Viability Assays (Cell lines HEK293, RS4-11, MOLT-4)
(§3) Cells were seeded at a density of 4000 cells per well in the 384-well clear bottom plate (Greiner Cat #781090) to the 45 μL total volume of either DMEM (PanEco, Cat #C420, for HEK293) or RPMI (PanEco, Cat #C330, for other cell lines) with 10% FBS(HyClone Cat #SV30160.03). Prior to adding compounds, the HEK293 cells were allowed to adhere overnight at 37° C. and 5% CO2. The 500× compounds solutions in DMSO(Sigma Cat #D2650) were dispersed into a 384-well compound plate (Diamond Well Plate, Axigen, Cat #P-384-120 SQ-C—S) including only DMSO control. The 1 μL aliquots of the 500× compounds from the compound plate were added to 49 μL of culture medium in the Dilution plate (Diamond Well Plate, Axigen, Cat #P-384-120 SQ-C—S), mixed and then the 5 μL aliquts of the 10× compound solutions were transferred to cells followed by centrifugation at 100 g for 1 min. Final DMSO concentration was 0.2%. After 3 days of incubation the 10 μL aliquots of CellTiter-Glo (Promega, CAT #G7572) were added to the cells, plate was centrifuged at 100 g for 1 min and the luminescence was measured on the CLARIOstar Plus (BMG LABTECH) instrument.
as §1
(In ATP-based viability assays light output follows the ATP content of the culture.)

A short description of data set [2]: Cell viability assay (CellTiter-Glo), HEK293. Format: cell-based. The conditions noted are these: human, HEK293 cells, 3 days of incubation. As to the method:
as §2, §3, §1

Another data set has as its system RS4-11 cells. Put plainly: Cell viability assay (CellTiter-Glo), RS4-11. Format: cell-based. The conditions noted are these: Homo sapiens, RS4-11, 72 h, 3 days of incubation. As to the method: as §2, §3, §1

Sequence of BCL-xL (Q07817 whole entry): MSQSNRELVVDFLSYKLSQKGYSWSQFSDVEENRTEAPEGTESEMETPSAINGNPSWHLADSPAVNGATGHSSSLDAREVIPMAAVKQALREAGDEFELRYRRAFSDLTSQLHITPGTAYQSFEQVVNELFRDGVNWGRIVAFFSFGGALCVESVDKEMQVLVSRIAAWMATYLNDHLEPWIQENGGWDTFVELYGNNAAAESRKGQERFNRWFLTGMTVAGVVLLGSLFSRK

On to `N#Cc1ccccc1CN(C(=O)c1cc(-c2cc(Cl)ccc2C(=O)N2Cc3ccccc3C[C@H]2CN2CCOCC2)n2c1CCCC2)c1ccc(Cl)cc1` [Compound 1, 3-[5-chloro-2-[(3S)-3-(morpholinomethyl)-3,4-dihydro-1H-isoquinoline-2-carbonyl]phenyl]-N-(4-chlorophenyl)-N-[(2-cyanophenyl)methyl]-5,6,7,8-tetrahydroindolizine-1-carboxamide], for which the EC50 in data set [1] is more than 500 nM. For the same compound, the IC50 – broadly, the concentration that gives 50% inhibition – was more than 50 nM on BCL-2, more than 1000 nM on BCL-2 [G101V] and more than 5000 nM on BCL-xL.
Taken in the same sequence, the figures for `COc1cccc(CN(C(=O)c2cc(-c3cc(Cl)ccc3C(=O)N3Cc4ccccc4C[C@H]3CN3CCOCC3)n3c2CCCC3)c2ccc(Cl)cc2)c1C` [Compound 2, 3-[5-chloro-2-[(3S)-3-(morpholinomethyl)-3,4-dihydro-1H-isoquinoline-2-carbonyl]phenyl]-N-(4-chlorophenyl)-N-[(3-methoxy-2-methyl-phenyl)methyl]-5,6,7,8-tetrahydroindolizine-1-carboxamide] were more than 500 nM, 10 to 50 nM, more than 1000 nM and more than 5000 nM.
With `N#Cc1ccccc1CN(C(=O)c1cc(-c2cc(Cl)ccc2C(=O)N2Cc3ccccc3C[C@H]2CN2CCOCC2)n2c1CCCC2)c1ccc(O)cc1` [Compound 3, 3-[5-chloro-2-[(3S)-3-(morpholinomethyl)-3,4-dihydro-1H-isoquinoline-2-carbonyl]phenyl]-N-[(2-cyanophenyl)methyl]-N-(4-hydroxyphenyl)-5,6,7,8-tetrahydroindolizine-1-carboxamide], the results for the CC50 in the data set with MOLT-4 cells and in the data set with RS4-11 cells were not above 5000 nM and 100 to 200 nM, respectively. Also, in data set [2], the CC50 – broadly, the concentration giving 50% cytotoxicity – at 3 days lay in the range of 10000 to 25000 nM. For the same compound, the EC50 in data set [1] lay within 200 to 500 nM. For the same compound, the values for the half-inhibitory concentration (IC50) at BCL-2, at BCL-2 [G101V] and on BCL-xL were not above 5 nM, not above 100 nM and more than 5000 nM, respectively.
`COc1cccc(CN(C(=O)c2cc(-c3cc(Cl)ccc3C(=O)N3Cc4ccccc4C[C@H]3CN3CCOCC3)n3c2CCCC3)c2ccc(O)cc2)c1C` [Compound 4, 3-[5-chloro-2-[(3S)-3-(morpholinomethyl)-3,4-dihydro-1H-isoquinoline-2-carbonyl]phenyl]-N-(4-hydroxyphenyl)-N-[(3-methoxy-2-methyl-phenyl)methyl]-5,6,7,8-tetrahydroindolizine-1-carboxamide]: the CC50 is not above 5000 nM in the data set with MOLT-4 cells and not above 100 nM in the data set with RS4-11 cells. In data set [2], this compound came in with a CC50 at 3 days of 10000 to 25000 nM. Further, the EC50 in data set [1] was not above 200 nM. The IC50 at BCL-2 was not above 5 nM; at BCL-2 [G101V], 100 to 1000 nM; at BCL-xL, more than 5000 nM.
As to `Cc1c(C(=O)N(Cc2ccccc2C#N)c2ccc(O)cc2)cc(-c2cc(Cl)ccc2C(=O)N2Cc3ccccc3C[C@H]2CN2CCOCC2)n1C` [Compound 6, 5-[5-chloro-2-[(3S)-3-(morpholinomethyl)-3,4-dihydro-1H-isoquinoline-2-carbonyl]phenyl]-N-[(2-cyanophenyl)methyl]-N-(4-hydroxyphenyl)-1,2-dimethyl-pyrrole-3-carboxamide], the CC50 was 5000 to 10000 nM in the data set on MOLT-4 cells and 100 to 200 nM with RS4-11 cells. In addition, in data set [2], the CC50 at 3 days was 10000 to 25000 nM. Besides, the EC50 in data set [1] fell in the range of 200 to 500 nM. Further, the figures for the IC50 on BCL-2, at BCL-2 [G101V] and on BCL-xL were not above 5 nM, not above 100 nM and not above 2000 nM, respectively.
For the compound `COc1cccc(CN(C(=O)c2cc(-c3cc(Cl)ccc3C(=O)N3Cc4ccccc4C[C@H]3CN3CCOCC3)n(C)c2C)c2ccc(O)cc2)c1C` [Compound 7, 5-[5-chloro-2-[(3S)-3-(morpholinomethyl)-3,4-dihydro-1H-isoquinoline-2-carbonyl]phenyl]-N-(4-hydroxyphenyl)-N-[(3-methoxy-2-methyl-phenyl)methyl]-1,2-dimethyl-pyrrole-3-carboxamide], the CC50 is 5000 to 10000 nM in the data set with MOLT-4 cells and not above 100 nM in the data set on RS4-11 cells. The compound further showed a CC50 at 3 days in data set [2] of 10000 to 25000 nM. Besides, in data set [1], the EC50 is not above 200 nM. The values for the concentration for half-maximal inhibition (IC50) on BCL-2, on BCL-2 [G101V] and at BCL-xL were not above 5 nM, not above 100 nM and 2000 to 5000 nM, respectively.
Turning to `COc1cccc(CN(C(=O)c2cc(-c3cc(NC(C)=O)ccc3C(=O)N3Cc4ccccc4C[C@H]3CN3CCOCC3)n(C)c2C)c2ccc(O)cc2)c1C` [Compound 48, 5-[5-acetamido-2-[(3S)-3-(morpholinomethyl)-3,4-dihydro-1H-isoquinoline-2-carbonyl]phenyl]-N-(4-hydroxyphenyl)-N-[(3-methoxy-2-methyl-phenyl)methyl]-1,2-dimethyl-pyrrole-3-carboxamide], the IC50 at BCL-2 fell in the range of 5 to 10 nM; at BCL-2 [G101V] it was 100 to 1000 nM; at BCL-xL, 2000 to 5000 nM.
Take `COc1cccc(CN(C(=O)c2cc(-c3cc(S(C)(=O)=O)ccc3C(=O)N3Cc4ccccc4C[C@H]3CN3CCOCC3)n(C)c2C)c2ccc(O)cc2)c1C` [Compound 49, N-(4-hydroxyphenyl)-N-[(3-methoxy-2-methyl-phenyl)methyl]-1,2-dimethyl-5-[5-methylsulfonyl-2-[(3S)-3-(morpholinomethyl)-3,4-dihydro-1H-isoquinoline-2-carbonyl]phenyl]pyrrole-3-carboxamide]: the values for the CC50 with MOLT-4 cells and in the data set on RS4-11 cells were 5000 to 10000 nM and not above 100 nM, respectively. In addition, the CC50 at 3 days in data set [2] is more than 25000 nM. Besides, the IC50 on BCL-2 was not above 5 nM; on BCL-2 [G101V], not above 100 nM; at BCL-xL it was 2000 to 5000 nM.
`COc1cccc(CN(C(=O)c2cc(-c3cc(C(N)=O)ccc3C(=O)N3Cc4ccccc4C[C@H]3CN3CCOCC3)n(C)c2C)c2ccc(O)cc2)c1C` [Compound 64, 5-[5-carbamoyl-2-[(3S)-3-(morpholinomethyl)-3,4-dihydro-1H-isoquinoline-2-carbonyl]phenyl]-N-(4-hydroxyphenyl)-N-[(3-methoxy-2-methyl-phenyl)methyl]-1,2-dimethyl-pyrrole-3-carboxamide]: the results for the CC50 with MOLT-4 cells and in the data set with RS4-11 cells were more than 10000 nM and not above 100 nM, respectively. Also, the CC50 at 3 days in data set [2] was more than 25000 nM. Further, the EC50 in data set [1] is more than 500 nM. Besides, the IC50 at BCL-2 was not above 5 nM; on BCL-xL it was more than 5000 nM.
Regarding `COc1ccccc1CN(C(=O)c1cc(-c2cc(Cl)ccc2C(=O)N2Cc3ccccc3C[C@H]2CN2CCOCC2)n(C)c1C)c1ccc2[nH]ncc2c1` [Compound 69, 5-[5-chloro-2-[(3S)-3-(morpholinomethyl)-3,4-dihydro-1H-isoquinoline-2-carbonyl]phenyl]-N-(1H-indazol-5-yl)-N-[(2-methoxyphenyl)methyl]-1,2-dimethyl-pyrrole-3-carboxamide], the CC50 is more than 10000 nM with MOLT-4 cells and more than 200 nM in the data set with RS4-11 cells. In addition, in data set [2], the CC50 at 3 days is more than 25000 nM. Besides, in data set [1], the EC50 is more than 500 nM. In addition, the half-maximal inhibitory concentration (IC50) is 10 to 50 nM on BCL-2 and more than 5000 nM at BCL-xL.
